According to publication PMC6440567 (Clinical and Translational Science, 2018):

How the values were obtained:
[1] = system: ceftazidime‐resistant P. aeruginosa; conditions: thigh and lung infection; cited from earlier work
[2] = Final avibactam PopPK model; format: in vivo, human; conditions: for clearance: human, plasma, intravenous
[3] = system: ceftazidime‐resistant Enterobacteriaceae; conditions: cited from earlier work
OAT3 = conditions: in vitro; cited from earlier work
[4] = Individual predicted steady‐state exposures; format: in vivo, human; conditions: for AUC / Cmax: human, plasma; for AUC: AUCss,0–24 geometric mean (CV)
[5] = taken to be; ref not given; cited from earlier work
[6] = system: organic anion transporter 1 (OAT1); conditions: in vitro; cited from earlier work
[7] = non‐Chinese, non‐Japanese Asians vs other racial origins

## NC(=O)[C@@H]1CC[C@@H]2CN1C(=O)N2OS(=O)(=O)O [Avibactam, avibactam]
[1]
  %fT > 1 mg/L associated with 2log10 reductions in bacterial density: 20–55%
  %fT > 1 mg/L associated with stasis: 16–24%
[2]; 10th percentile of body weight (51 kg) vs median weight (70 kg)
  lower V c: 29%
[2]; 90th percentile of body weight (95 kg) vs median weight (70 kg)
  higher V c: 39%
[2]; APACHE II score > 10
  decrease in CL: 19.7%
[2]; CrCL ≥ 80 mL/min
  increase in CL for an increase of 100 mL/min in CrCL over 80 mL/min: 27.9%
[2]; CL, patients with ESRD, off dialysis
  clearance: 1.13 mL/min
[2]; CL, patients with ESRD, on‐dialysis
  clearance: 347 mL/min
[2]; θ1: CL, typical value
  clearance: 170 mL/min
[2]; θ6: CL estimate for patients on dialysis
  clearance: 347 mL/min
[2]; in vivo
  θ9: Population effect on V c (cIAI, phase II), V c*(1 + θ9): 1.92
  θ11: Population effect on V c (cUTI), V c*(1 + θ11): 0.434
  θ12: Population effect on V c (cIAI, phase III, NP), V c*(1 + θ11): 0.329
  θ14: WT on V c (WT/70.0)^θ14: 1.08
  θ 28: NPv on V c,V c*(1 + θ28): 0.175
[2]; [7]
  increase in AUC: 9.5%
  lower CL: 8.65%
[2]; patients with NPv vs non‐NPv patients
  higher V c: 17.5%
[2]; patients with cUTI vs healthy subjects
  higher V c: 43.4%
[2]; phase III patients with cIAI and patients with NP vs healthy subjects
  higher V c: 32.9%
[2]; typical value
  θ2: V c: 11.1 L
  θ3: Q: 5.44 L/h
  θ4: V p: 6.91 L
[3]; avibactam concentration fixed, varying concentrations of ceftazidime
  C T that restored the activity of ceftazidime: ≤ 0.5 mg/L
[3]; fixed concentrations of ceftazidime, varying concentrations of avibactam
  C T sufficient to restore ceftazidime activity: 0.15 to 0.28 mg/L
OAT3
  transporter substrate: substrate
[4]; Age (years) 18–65
  AUC: 131 µg·h/mL
[4]; Age (years) > 65–75
  AUC: 156 µg·h/mL
[4]; Age (years) > 75–89
  AUC: 180 µg·h/mL
[4]; Asian population: China (only)
  AUC: 153 µg·h/mL
[4]; Asian population: Japan
  AUC: 164 µg·h/mL
[4]; Baseline WBC count Missing
  AUC: 147 µg·h/mL
[4]; Concomitant use of OAT1/OAT3 inhibitor(s): No
  AUC: 142 µg·h/mL
[4]; Concomitant use of OAT1/OAT3 inhibitor(s): Yes
  AUC: 150 µg·h/mL
[4]; Fever at baseline: Missing
  AUC: 132 µg·h/mL
[4]; Fever at baseline: No
  AUC: 146 µg·h/mL
[4]; Fever at baseline: Yes
  AUC: 134 µg·h/mL
[4]; Obesity I (29.9 ≤ BMI < 34.9 kg/m^2)
  AUC: 136 µg·h/mL
[4]; Obesity II (34.9 ≤ BMI < 39.9 kg/m^2)
  AUC: 141 µg·h/mL
[4]; Obesity III (BMI ≥ 39.9 kg/m^2)
  AUC: 115 µg·h/mL
[4]; Obesity: Missing
  AUC: 172 µg·h/mL
[4]; Obesity: Normal
  AUC: 144 µg·h/mL
[4]; Race: Asian (non‐Chinese; non‐Japanese)
  AUC: 166 µg·h/mL
[4]; Race: Chinese and Taiwanese
  AUC: 151 µg·h/mL
[4]; Race: Japanese
  AUC: 164 µg·h/mL
[4]; Race: White/other
  AUC: 135 µg·h/mL
[4]; C max,ss geometric mean (CV), Age (years) 18–65
  Cmax: 12.5 µg/mL
[4]; C max,ss geometric mean (CV), Age (years) > 65–75
  Cmax: 13.2 µg/mL
[4]; C max,ss geometric mean (CV), Age (years) > 75–89
  Cmax: 14 µg/mL
[4]; C max,ss geometric mean (CV), Asian population: China (only)
  Cmax: 14.9 µg/mL
[4]; C max,ss geometric mean (CV), Asian population: Japan
  Cmax: 16.1 µg/mL
[4]; C max,ss geometric mean (CV), Asian population: Korea
  Cmax: 13 µg/mL
[4]; C max,ss geometric mean (CV), Concomitant use of OAT1/OAT3 inhibitor(s): No
  Cmax: 12.8 µg/mL
[4]; C max,ss geometric mean (CV), Concomitant use of OAT1/OAT3 inhibitor(s): Yes
  Cmax: 13.7 µg/mL
[4]; C max,ss geometric mean (CV), Fever at baseline: Missing
  Cmax: 11.8 µg/mL
[4]; C max,ss geometric mean (CV), Fever at baseline: No
  Cmax: 12.9 µg/mL
[4]; C max,ss geometric mean (CV), Fever at baseline: Yes
  Cmax: 12.2 µg/mL
[4]; C max,ss geometric mean (CV), Obesity I (29.9 ≤ BMI < 34.9 kg/m^2)
  Cmax: 12 µg/mL
[4]; C max,ss geometric mean (CV), Obesity II (34.9 ≤ BMI < 39.9 kg/m^2)
  Cmax: 13.2 µg/mL
[4]; C max,ss geometric mean (CV), Obesity III (BMI ≥ 39.9 kg/m^2)
  Cmax: 9.7 µg/mL
[4]; C max,ss geometric mean (CV), Obesity: Missing
  Cmax: 14.2 µg/mL
[4]; C max,ss geometric mean (CV), Obesity: Normal
  Cmax: 13 µg/mL
[4]; C max,ss geometric mean (CV), Race: Asian (non‐Chinese; non‐Japanese)
  Cmax: 14.9 µg/mL
[4]; C max,ss geometric mean (CV), Race: Chinese and Taiwanese
  Cmax: 14.7 µg/mL
[4]; C max,ss geometric mean (CV), Race: Japanese
  Cmax: 16.1 µg/mL
[4]; C max,ss geometric mean (CV), Race: White/other
  Cmax: 12 µg/mL
[4]; intravenous
  Cmax: 12.7 µg/mL
[4]; intravenous, 187.5 mg, Day 3 CrCL 8–15 mL/min (750‐187.5 mg q24 h)
  AUC: 86.3 µg·h/mL
[4]; intravenous, 187.5 mg, C max,ss geometric mean (CV), Day 3 CrCL 8–15 mL/min (750‐187.5 mg q24 h)
  Cmax: 6.3 µg/mL
[4]; intravenous, 500 mg, Day 3 CrCL > 150–180 mL/min (2000‐500 mg q8 h)
  AUC: 103 µg·h/mL
[4]; intravenous, 500 mg, C max,ss geometric mean (CV), Day 3 CrCL > 150–180 mL/min (2000‐500 mg q8 h)
  Cmax: 9.9 µg/mL
[4]; intravenous, Asian population: Korea
  AUC: 144 µg·h/mL
[4]; intravenous, Asian population: Taiwan
  AUC: 115 µg·h/mL
[4]; intravenous, Asian population: Vietnam
  AUC: 146 µg·h/mL
[4]; intravenous, Bacteremia at baseline: No
  AUC: 141 µg·h/mL
[4]; intravenous, Bacteremia at baseline: Yes
  AUC: 161 µg·h/mL
[4]; intravenous, Baseline APACHE II score > 10
  AUC: 170 µg·h/mL
[4]; intravenous, Baseline APACHE II score Missing
  AUC: 138 µg·h/mL
[4]; intravenous, Baseline APACHE II score ≤ 10
  AUC: 131 µg·h/mL
[4]; intravenous, Baseline WBC count (cells/μL) > 12,000
  AUC: 136 µg·h/mL
[4]; intravenous, Baseline WBC count (cells/μL) ≤ 12,000
  AUC: 145 µg·h/mL
[4]; intravenous, Patient population: NP
  AUC: 169 µg·h/mL
[4]; intravenous, Patient population: Non‐VAP
  AUC: 183 µg·h/mL
[4]; intravenous, Patient population: VAP
  AUC: 146 µg·h/mL
[4]; intravenous, Patient population: cIAI
  AUC: 132 µg·h/mL
[4]; intravenous, Patient population: cUTI
  AUC: 138 µg·h/mL
[4]; intravenous, SIRS at baseline: Missing
  AUC: 129 µg·h/mL
[4]; intravenous, SIRS at baseline: No
  AUC: 143 µg·h/mL
[4]; intravenous, SIRS at baseline: Yes
  AUC: 142 µg·h/mL
[4]; intravenous, C max,ss geometric mean (CV), Asian population: Taiwan
  Cmax: 10.2 µg/mL
[4]; intravenous, C max,ss geometric mean (CV), Asian population: Vietnam
  Cmax: 14.6 µg/mL
[4]; intravenous, C max,ss geometric mean (CV), Bacteremia at baseline: No
  Cmax: 12.6 µg/mL
[4]; intravenous, C max,ss geometric mean (CV), Bacteremia at baseline: Yes
  Cmax: 14.2 µg/mL
[4]; intravenous, C max,ss geometric mean (CV), Baseline APACHE II score > 10
  Cmax: 14.3 µg/mL
[4]; intravenous, C max,ss geometric mean (CV), Baseline APACHE II score Missing
  Cmax: 12.1 µg/mL
[4]; intravenous, C max,ss geometric mean (CV), Baseline WBC count (cells/μL) > 12,000
  Cmax: 12.5 µg/mL
[4]; intravenous, C max,ss geometric mean (CV), Baseline WBC count (cells/μL) ≤ 12,000
  Cmax: 12.8 µg/mL
[4]; intravenous, C max,ss geometric mean (CV), Patient population: NP
  Cmax: 14.2 µg/mL
[4]; intravenous, C max,ss geometric mean (CV), Patient population: Non‐VAP
  Cmax: 15.5 µg/mL
[4]; intravenous, C max,ss geometric mean (CV), Patient population: VAP
  Cmax: 12 µg/mL
[4]; intravenous, C max,ss geometric mean (CV), Patient population: cIAI
  Cmax: 12.8 µg/mL
[4]; intravenous, C max,ss geometric mean (CV), Patient population: cUTI
  Cmax: 12.1 µg/mL
[4]; intravenous, C max,ss geometric mean (CV), SIRS at baseline: Missing
  Cmax: 12.1 µg/mL
[4]; intravenous, C max,ss geometric mean (CV), SIRS at baseline: No
  Cmax: 12.8 µg/mL
[4]; intravenous, C max,ss geometric mean (CV), SIRS at baseline: Yes
  Cmax: 12.6 µg/mL
[4]; most patient subgroups
  difference in steady‐state exposure vs. healthy volunteers: ≤ 20%
[4]; patients with VAP vs non‐VAP patients
  lower C max,ss: ~ 20%
[5]
  free plasma concentrations as % of total plasma concentrations: 92%
[6]
  transporter substrate: substrate
